Patent publication US20050048539A1, “Methods to monitor molecule conformation and molecule/molecule proximity” (The General Hospital Corporation, priority 2003, published 2005)
“Also recorded” adds a separate entry of the source.

Experiments:
Aβ40, Aβ42 and Aβ1-x = experiment: Aβ ELISA of conditioned medium of PS70 cells treated with NSAIDs; format: cell-based, human; conditions: 24 hours; for Aβ1-x level (ELISA): high doses
Method: (§1) Cell culture and drug treatment: PS70 cells, CHO cells stably overexpressing wild-type human PS1 and APP 751 (Xia, W. et al., J. Biol. Chem. 272, 7977-7982, 1997), mouse N2a neuroblastoma, or human embryonic kidney (HEK) cells were used in this study. Cells were cultured in OPTI-MEMI with 5% fetal bovine serum at 37° C. with 5% CO2 in a tissue culture incubator. Primary cultured hippocampal-cortical neurons were prepared from embryonic day 16-18 mouse brain as described (Berezovska, O. et al., Brain Res Mol Brain Res 69: 273-280, 1999).
(§2) The NSAIDs (S)-ibuprofen (250 mM, Biomol, Plymouth Meeting, Penn.), (R)-ibuprofen (250 mM, Biomol), and flurbiprofen (250 mM, Calbiochem, San Diego, Calif.) were dissolved in 100% ethanol. […] Cells were plated onto either 12-well plates (for Aβ determinations) or onto 4-chamber slides (FLIM studies) and treated for 24 hours with NSAIDs prior to the analysis. A vehicle control chamber treated with ethanol or DMSO (0.1%) was included in each experiment. Cell toxicity was analyzed for all drugs tested by measuring adenylate kinase levels using Toxi-light reagent (Camdex, New Jersey).
(§3) ELISA, BACE-specific enzymatic activity assay and Western Blots: For Aβ ELISA we used 500 μl of conditioned medium collected 24 hours post-treatment. Formic acid-extractable Aβ in the mouse brain was measured as described (Fukumoto, H.,et al., Am. J. Pathol. 164, 719-725, 2004). The capture antibody was BNT77 and the detection antibody was horseradish peroxidase (HRP)-conjugated BA27 for Aβ40 and HRP-conjugated BC05 for Aβ42 (Asami-Odaka, A. et al., Biochemistry 34: 10272-10278, 1995). We used BAN50 as a capture antibody and HRP-conjugated BNT77 as a detection antibody for Aβ1-x (a gift from Takeda, Japan) (Asami-Odaka, A. et al., Biochemistry 34: 10272-10278, 1995). BACE activity was measured using a sensitive BACE-specific enzymatic activity assay (Fukumoto, H.,et al., Am. J. Pathol. 164, 719-725, 2004).
We treated Chinese hamster ovary (CHO) cells stably transfected with APP and PS1 (PS70 cells) with several NSAIDs at different doses for 24 hours and measured Aβ40 and Aβ42 using ELISA (FIG. 14).

APP and PS1 = target: T1, APP and PS1 (Homo sapiens, UniProt P49768); experiment: FLIM assay for PS1-APP proximity after NSAID treatment; format: cell-based; conditions: donor APP-CT-FITC, acceptor loop PS1-Cy3, 24 h, 375 μM S-ibuprofen, 375 μM flurbiprofen, 500 μM aspirin, DMSO vehicle 2127 ± 224
T1 construct: expressed in transfected cells
Method: as §1, §2

Aβ42 and Aβ40 = experiment: Brain Aβ ELISA in wtPS1 transgenic mice treated with S-ibuprofen; format: in vivo, mouse; conditions: 3-month-old wtPS1 transgenic mice, 375 ppm in diet, 15 days; P=0.03
Method: as §3
(§4) Ibuprofen treatment of wtPS1 mice: Three-month-old transgenic mice over-expressing wtPS1 were treated with S-ibuprofen (375 ppm in diet, Research Diets, New Brunswick, N.J.) or a control diet for 15 days (6 mice per group). […] At the end of the experimental period animals were sacrificed by CO2 inhalation. The brains were dissected, half of each brain was frozen on dry ice for Aβ ELISA and BACE activity analysis and the other half was fixed in 4% paraformaldehyde for immunohistochemistry. […]

BACE = target: T2, BACE (Mus musculus, UniProt P56818); experiment: BACE-specific enzymatic activity assay in brain of treated mice; format: in vivo; conditions: S-ibuprofen 375 ppm in diet vs control diet, 15 days
T2 construct: from tissue; host or cells: frozen brain of wtPS1 transgenic mice
T2 sequence (P56818 46-501): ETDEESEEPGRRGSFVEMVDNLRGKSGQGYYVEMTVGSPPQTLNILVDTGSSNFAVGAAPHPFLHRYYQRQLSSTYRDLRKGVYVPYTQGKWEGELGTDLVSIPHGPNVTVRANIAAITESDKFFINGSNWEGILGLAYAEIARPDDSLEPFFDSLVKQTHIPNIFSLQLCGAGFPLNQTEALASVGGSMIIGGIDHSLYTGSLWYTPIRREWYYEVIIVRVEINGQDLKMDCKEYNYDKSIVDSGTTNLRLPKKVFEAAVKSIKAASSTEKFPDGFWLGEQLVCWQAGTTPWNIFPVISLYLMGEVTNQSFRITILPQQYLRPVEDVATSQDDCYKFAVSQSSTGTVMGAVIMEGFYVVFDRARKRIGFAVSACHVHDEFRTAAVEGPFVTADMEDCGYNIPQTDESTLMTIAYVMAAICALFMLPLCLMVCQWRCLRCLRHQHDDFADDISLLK
Method: as §3, §4

[1] = Chow consumption and mouse weight during ibuprofen treatment; format: in vivo; conditions: S-ibuprofen 375 ppm in diet vs control diet, 15 days
Method: (§5) Ibuprofen treatment of wtPS1 mice: Three-month-old transgenic mice over-expressing wtPS1 were treated with S-ibuprofen (375 ppm in diet, Research Diets, New Brunswick, N.J.) or a control diet for 15 days (6 mice per group). […] At the end of the experimental period animals were sacrificed by CO2 inhalation. The brains were dissected, half of each brain was frozen on dry ice for Aβ ELISA and BACE activity analysis and the other half was fixed in 4% paraformaldehyde for immunohistochemistry.

PS1 [2] = target: T3, PS1 (Homo sapiens, UniProt P49768); experiment: FLIM assay of PS1 N-/C-termini proximity in primary cultured neurons; format: cell-based, mouse; set-up: expressed in transfected cells; host or cells: primary hippocampal-cortical neurons from embryonic day 16-18 mouse brain
Method: as §1, with “1999). Transfection protocol: Transient transfection in cells was performed using Superfect reagents (Qiagen, Valencia, Calif.) according to manufacturer's instructions. Primary cultured neurons were transfected with wild-type PS1 plasmid using the method of calcium phosphate co-precipitation as described (Berezovska, O. et al., Brain Res Mol Brain Res 69: 273-280, 1999; Chen, C. et al., Biotechniques 6: 632-638, 1987).” for “1999).”

PS1 [3] = target: T3, PS1; experiment: In vivo FLIM assay of proximity between N- and C-termini of PS1 in brain sections; set-up: expressed in transfected cells; host or cells: primary hippocampal-cortical neurons from embryonic day 16-18 mouse brain; species or system mouse; conditions: mice, 375 ppm in diet, 15 days; control diet 1934±161 psec; P=0.02
Method: as §5
Half of the brain was fixed, sectioned at 35 μm, and immunostained with antibodies against the N- and C-termini of PS1.

[4] = system: APP and PS1 (PS1/γ-secretase complex); experiment: FLIM assay for PS1 loop-APP C-terminus proximity in CHO cells treated with γ-secretase inhibitors; format: cell-based, Chinese hamster; conditions: WT PS1 CHO cells, donor PS1 loop-FITC, acceptor APP770-CY3, 4 h with DAPT 500 nM or WPE-III-31C 1 μM, non-FRET control 2600 ± 110, untreated 2290 ± 216
Method: Chinese hamster ovary (CHO) cells stably transfected with APP770 and either wild type PS1 (wt PS1) or Aspartate mutant PS1 (D257A PS1) were grown in OPTI-MEM with 5% fetal bovine serum and appropriate antibiotics (Puromycin or Zeocin, respectively, (Berezovska et al., 2000)).
Cells were fixed and immunostained 24 hrs posttransfection as described previously (Jack, C. et al., Brain Res Mol Brain Res 87: 166-174, 2001). We used a polyclonal C8 antibody (Selkoe, D. et al., Proc Natl Acad Sci USA 85: 7341-7345, 1988) to detect the C-terminus of APP. A monoclonal antibody to the loop region of PS1 (Chemicon, Temecula, Calif.) was used to identify the γ-secretase complex. PS1 N-terminal X81 antibody was a gift from D. Selkoe (Brigham and Women's Hospital, Boston, Mass.); PS1 C-terminal antibody was purchased from R&D Systems, Inc., Minneapolis, Minn.). For FRET/FLIM studies we chose Cy3-labeled goat anti-rabbit as the acceptor fluorophore, and FITC-labeled goat anti-mouse as the donor fluorophore.
Fluorescence Lifetime Imaging Microscopy (FLIM) relies on the observation that fluorescence lifetimes (the time of fluorophore emission after brief excitation, measured in picoseconds) are shorter in the presence of a FRET acceptor. […] We used a high-speed Hamamatsu detector and hardware/software from Becker and Hickl (Berlin, Germany) to measure fluorescence lifetimes on a pixel-by-pixel basis. […]
The following controls were used to establish and validate the FLIM assay: (1) As a negative control, FITC lifetime was measured in the absence of the acceptor. […] (2) As a positive control, FITC lifetime was measured in the presence of an acceptor. […] By contrast, the FITC fluorescence lifetime (FLIM image) within the area where the acceptor was photobleached reverts to a longer lifetime (color-coded as blue), identical to the lifetime of FITC in the absence of an acceptor (as in the negative control, FIG. 7A). […]
If there was no interaction, lifetimes on the order of ˜2600 psec were observed. If FRET was detected, a population with a statistically shorter lifetime (<˜2400 psec) was observed.

PS1 [5] = target: T3, PS1; experiment: Confocal staining with biotinylated WPE31C as histological reagent (wt PS1 vs D257A PS1 cells); format: cell-based; set-up: expressed in transfected cells; conditions: cells expressing wt PS1
Method: PS1 immunostaining co-localizes with CY3-streptavidin labeled WPE-31C-bi in the cells expressing wt PS1. […] Bar=[…].
We reasoned that an agent that binds to the active site would compete with APP, blocking the APP-PS1 interaction if the first possibility were the case. […] The cells were treated with WPE-31C to examine whether APP would still be associated with the PS1 loop region. […] It has been observed that transition state analogues like WPE31C bind specifically to the heterodimeric form of PS1, and not to the holoprotein prior to cleavage. […] We used a biotinylated form of WPE31C (Esler, W. P. et al., Proc Natl Acad Sci USA 99: 2720-2725, 2002) as a histological reagent. […] Of note, there was less WPE-31C/Cy3 signal in the proximal perinuclear compartment, compared with PS1 immunoreactivity, confirming our observation that some of this PS1 is in a different conformation and is likely not proteolytically active.

FITC lifetime (PS1 N- to C-termini distance) (PS1 [2])	SMILES	Aβ40 level (ELISA) (Aβ40, Aβ42 and Aβ1-x)	Aβ42 level (ELISA) (Aβ40, Aβ42 and Aβ1-x)	Aβ1-x level (ELISA) (Aβ40, Aβ42 and Aβ1-x)	other results
significantly increased	CC(C)Cc1ccc([C@H](C)C(=O)O)cc1 [S-ibuprofen, (S)-ibuprofen]	reduced	marked reduction; also recorded: dose-dependent reduction	did not observe a change	FITC lifetime APP-CT (mean ± SD) (APP and PS1): 2307 ± 107 psec; FITC lifetime APP-CT (mean ± SD) (APP and PS1; listed as ibuprofen): increased FITC lifetime; reduction of Aβ42/Aβ40 ratio in the brain vs control diet (Aβ42 and Aβ40): 12%; BACE activity in brain (BACE): No differences; amount of chow consumed, mouse weight [1]: no differences; FITC lifetime, brain sections stained for PS1 N- and C-termini (PS1 [3]): 2205±104 psec
–	COC(=O)[C@@H](NC(=O)[C@H](CC(C)C)NC(=O)N(Cc1ccccc1)C[C@@H](O)[C@H](Cc1ccccc1)NC(=O)OC(C)(C)C)C(C)C [WPE-III-31C]	–	–	–	FITC Lifetime (psec) mean ± SD ([4]; listed as WPE31C): 1972 ± 264 (n = 30) psec; FITC Lifetime (psec) mean ± SD ([4]; listed as WPE-31C): tight association between APP and PS1; CY3-streptavidin staining / co-localization with PS1 immunostaining (PS1 [5]): strongly stained
significantly increased	COc1ccc2c(c1)c(CC(=O)O)c(C)n2C(=O)c1ccc(Cl)cc1 [indomethacin]	–	marked reduction; also recorded: dose-dependent reduction	did not observe a change	–
not	COc1ccc2cc([C@H](C)C(=O)O)ccc2c1 [naproxen]	No or small change	No or small change	did not observe a change	–
–	CC(C)Cc1ccc([C@@H](C)C(=O)O)cc1 [R-ibuprofen, (R)-ibuprofen]	–	marked reduction; also recorded: dose-dependent reduction	–	–
–	CC(=O)Oc1ccccc1C(=O)O [aspirin]	No or small change	No or small change	–	–
–	CC(C(=O)O)c1ccc(-c2ccccc2)c(F)c1 (centres unmarked) [flurbiprofen]	reduced	marked reduction; also recorded: dose-dependent reduction	did not observe a change	–
